# From patent publication US12613239B2, “Live imaging system to visualize the retro-transcribed viral DNA genome” (priority 2019, dated 2026)
# Like-named read-outs stand apart in the source and are kept apart here.
# Experiments:
# [1] = system: HIV-1 ANCH3 (HIV-1ΔEnvINHAΔNef ANCH3/VSV-G); assay type: cell-based
# HIV-1 viral RNA = assay type: cell-based; details: 24 h
# viral CA = viral CA (Human immunodeficiency virus type 1 group M subtype B, UniProt P04591); details: cited from earlier work
# [2] = system: HIV-1 CA and IN association; assay type: cell-based; details: 24 h
# [3] = system: lentiviral particles pseudotyped with Spike from SARS-CoV2 (S-LV-ANCH3); assay type: cell-based
smiles,measurement,setting,value
"Cc1ccnc2c1NC(=O)c1cccnc1N2C1CC1 [NEV, nevirapine]",Intranuclear spots counted in 20 cells,[1],0 detections
Cc1[nH]c2ccccc2c1CC(=O)N[C@@H](Cc1ccccc1)C(=O)N(C)c1ccccc1 [PF74],Viral RNA of the incoming cores,HIV-1 viral RNA; high dose of PF74 (10 μM),completely degraded
same,Viral RNA of the incoming cores,HIV-1 viral RNA; low dose of PF74 (1.25 μM),not completely degraded
same,Mechanism at high concentration,viral CA,accelerates uncoating and blocks reverse transcription
same,Mechanism at low concentration,viral CA,directly competes with the binding of host viral partners
same,Detection of viral DNA inside the nucleus,[1],detect the viral DNA inside the nucleus only in the absence of PF74
same,Viral nuclear entry,[1],blocked viral nuclear entry
same,Association between CA and IN,[2]; high dose of PF74 (10 μM),lost
same,Association between CA and IN,[2]; low dose of PF74 (1.25 μM),preserved to levels comparable to samples without drug at 6 h post infection
CCN(CCO)CCCC(C)Nc1ccnc2cc(Cl)ccc12 (stereo not shown) [hydroxychloroquine],Viral entry of S-LV-ANCH3,[3],inhibit viral entry
